Test results from US20250268903A1, “RXFP1 AGONISTS” (BRISTOL-MYERS SQUIBB COMPANY, priority 2021, published 2025).

Target: T1, human RXFP1 (Homo sapiens, UniProt Q9HBX9)
T1 construct: expressed in transfected cells
T1 sequence (Q9HBX9 1-757): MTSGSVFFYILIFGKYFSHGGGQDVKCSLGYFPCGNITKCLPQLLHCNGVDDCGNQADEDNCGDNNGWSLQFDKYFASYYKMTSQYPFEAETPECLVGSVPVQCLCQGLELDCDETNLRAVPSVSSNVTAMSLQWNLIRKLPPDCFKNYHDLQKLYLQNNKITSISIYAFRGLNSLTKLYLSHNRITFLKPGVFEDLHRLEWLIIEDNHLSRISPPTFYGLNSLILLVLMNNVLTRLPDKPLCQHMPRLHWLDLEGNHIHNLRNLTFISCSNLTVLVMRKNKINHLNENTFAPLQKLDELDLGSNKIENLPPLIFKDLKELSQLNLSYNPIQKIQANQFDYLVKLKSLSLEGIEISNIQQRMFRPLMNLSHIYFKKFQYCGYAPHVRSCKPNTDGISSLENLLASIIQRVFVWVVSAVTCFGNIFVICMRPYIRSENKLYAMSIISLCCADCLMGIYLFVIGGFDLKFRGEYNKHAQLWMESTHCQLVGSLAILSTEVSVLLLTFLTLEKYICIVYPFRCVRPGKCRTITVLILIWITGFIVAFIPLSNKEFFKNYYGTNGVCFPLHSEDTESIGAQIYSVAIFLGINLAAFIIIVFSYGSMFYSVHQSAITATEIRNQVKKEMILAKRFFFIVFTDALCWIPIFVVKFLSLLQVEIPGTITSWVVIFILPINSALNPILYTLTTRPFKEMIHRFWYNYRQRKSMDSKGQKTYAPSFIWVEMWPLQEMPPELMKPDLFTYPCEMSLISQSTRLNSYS
Assay: hRXFP1 HEK293 cAMP assay (HTRF)
Type: cell-based
Details: HEK293 cells stably expressing human RXFP1, 30 min at room temperature
Procedure, shortened: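 Potency and activity come from a four-parameter logistic fit of cAMP against compound concentration, tested from 0.010 nM up to 50 μM. The assay uses HEK293 cells stably expressing human RXFP1, incubated 30 min at ambient temperature with phosphodiesterase inhibitor IBMX present.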

Row | SMILES | EC50 [nM]
1 | COc1ccc(C2CCCC(NC(=O)C3CCOCC3)C2)cc1C(=O)N[C@@H]1C2CCC(/C2=C/C(F)(F)F)[C@@H]1C(=O)Nc1ccc(F)c(C(F)(F)F)c1 (single isomer, unassigned) [Example 50] | 2350
2 | COc1ccc(CCCOc2nc3ccccc3n2C)cc1C(=O)N[C@@H]1C2CCC(/C2=C/C(F)(F)F)[C@@H]1C(=O)Nc1ccc(F)c(C(F)(F)F)c1 (stereo partly drawn) [Example 105, (2S,3R,7Z)-N-[4-fluoro-3-(trifluoromethyl)phe-nyl]-3-(2-methoxy-5-{3-[(1-methyl-1H-1,3-benzodiazol-2-yl)oxy]propyl}benza-mido)-7-(2,2,2-trifluoroethylidene)bi-cyclo[2.2.1]heptane-2-carboxamide] | 1640
3 | COc1ccc(CCCNC[C@H](O)C(F)(F)F)cc1C(=O)N[C@@H]1C2CCC(/C2=C/C(F)(F)F)[C@@H]1C(=O)Nc1ccc(F)c(C(F)(F)F)c1 (stereo partly drawn) [Example 118, (2S,3R,7Z)-N-[4-fluoro-3-(trifluoromethyl)phe-nyl]-3-[2-methoxy-5-(3-{[(2S)-3,3,3-trifluoro-2-hydroxypropyl]amino}propyl)benzamido]-7-(2,2,2-trifluoroethylidene)bi-cyclo[2.2.1]heptane-2-carboxamide] | 1780
4 | COc1ccc(S(C)(=O)=O)cc1C(=O)N[C@@H]1C2CCC(C2=C(C)C)[C@@H]1C(=O)Nc1ccc(F)c(C(F)(F)F)c1 (stereo partly drawn) [Example 208, (2S,3R)-N-[4-fluoro-3-(trifluoromethyl)phenyl]-3-(5-methanesulfonyl-2-methoxybenzamido)-7-(propan-2-ylidene)bicyclo[2.2.1] heptane-2-carboxamide] | 2600
5 | COc1ccc(CCC(F)(F)F)cc1C(=O)NC1C2CCC(/C2=C/C(F)(F)F)[C@@H]1C(=O)Nc1ccc(F)c(C(F)(F)F)c1 (some centres unmarked) [Example 187, (7Z)-N-[4-fluoro-3-(trifluoromethyl)phe-nyl]-3-[2-methoxy-5-(3,3,3-trifluoropropyl)benz-amido]-7-(2,2,2-trifluoroethylidene)bi-cyclo[2.2.1]heptane-2-carboxamide] | 385
6 | COc1ccc(C2CCCC(NCC(=O)O)C2)cc1C(=O)N[C@@H]1C2CCC(/C2=C/C(F)(F)F)[C@@H]1C(=O)Nc1ccc(F)c(C(F)(F)F)c1 (some centres unmarked) [Example 354] | 4990
7 | COc1ccc(CCC(=O)N2CC[C@H](O)C2)cc1C(=O)N[C@@H]1C2CCC(/C2=C/C(F)(F)F)[C@@H]1C(=O)Nc1ccc(F)c(C(F)(F)F)c1 (stereo partly drawn) [Example 138, (2S,3R,7Z)-N-[4-fluoro-3-(trifluoromethyl)phe-nyl]-3-(5-{3-[(3S)-3-hydroxypyrrolidin-1-yl]-3-oxopropyl}-2-methoxybenzamido)-7-(2,2,2-trifluoroethylidene)bi-cyclo[2.2.1]heptane-2-carboxamide] | 428
8 | COc1ccc(C2CC3(CC(NC(=O)OC(C)(C)C)C3)C2)cc1C(=O)NC1C2CCC(/C2=C/C(F)(F)F)[C@@H]1C(=O)Nc1ccc(F)c(C(F)(F)F)c1 (stereo partly drawn) [Example 153, tert-butyl N-[6-(3-{[(2R,3S,7Z)-3-{[4-fluoro-3-(trifluoromethyl)phe-nyl]carbamoyl}-7-(2,2,2-trifluoroethylidene)bi-cyclo[2.2.1]heptan-2-yl]carbamoyl}-4-methoxyphenyl)spiro [3.3]heptan-2-yl]carbamate] | 1620
9 | COc1ccc(CCC(O)C(F)(F)F)cc1C(=O)N[C@@H]1C2CCC(/C2=C/C(F)(F)F)[C@@H]1C(=O)Nc1ccc(F)c(C(F)(F)F)c1 (stereo partly drawn) [Example 100, (2S,3R,7Z)-N-[4-fluoro-3-(trifluoromethyl)phe-nyl]-3-[2-methoxy-5-(4,4,4-trifluoro-3-hydroxybutyl)benza-mido]-7-(2,2,2-trifluoroethylidene)bi-cyclo[2.2.1]heptane-2-carboxamide] | 372
10 | COC(=O)C1CC2(C1)CC(c1ccc(OC)c(C(=O)N[C@@H]3C4CCC(/C4=C/C(F)(F)F)[C@@H]3C(=O)Nc3ccc(F)c(C(F)(F)F)c3)c1)C2 (single isomer, unassigned) [Example 150] | 715

Next, values leading:

Row | EC50 [nM] | SMILES
11 | 69.8 | COc1ccc(C(=O)N(C)C(C)(C)C)cc1C(=O)N[C@H]1[C@@H](C(=O)Nc2ccc(F)c(C(F)(F)F)c2)[C@H]2CC[C@@H]1/C2=C\C1CC1 [Example 241, N1-tert-butyl-N3-[(1R,2R,3S,4R,7Z)-7-(cyclopropyl-methylidene)-3-{[4-fluoro-3-(trifluoromethyl)phenyl]carbamoyl}bicyclo[2.2.1]heptan-2-yl]-4-methoxy-N1-methylbenzene-1,3-dicarboxamide]
12 | 53.1 | COc1ccc(C(=O)NCC(C)(C)O)cc1C(=O)N[C@H]1[C@@H](C(=O)Nc2ccc(F)c(C(F)(F)F)c2)[C@H]2CC[C@@H]1/C2=C\C1CC1 [Example 240, N3-[(1R,2R,3S,4R,7Z)-7-(cyclopropyl-methylidene)-3-{[4-fluoro-3-(trifluoromethyl)phenyl]carbamoyl}bicyclo[2.2.1]heptan-2-yl]-N1-(2-hydroxy-2-methylpropyl)-4-methoxybenzene-1,3-dicarboxamide]
13 | 3.1 | COc1c(F)cc(C(=O)NCC2(S(C)(=O)=O)CC2)cc1C(=O)N[C@H]1[C@@H](C(=O)Nc2ccc(F)c(C(F)(F)F)c2)[C@H]2CC[C@@H]1/C2=C\C1CC1 [Example 366, N3-[(1R,2R,3S,4R,7Z)-7-(cyclopropyl-methylidene)-3-{[4-fluoro 3-(trifluoromethyl)phenyl]carbamoyl}bicyclo[2.2.1]heptan-2-yl]-5-fluoro-N1-[(1-methanesulfonyl-cyclopropyl)methyl]-4-methoxybenzene-1,3-dicarboxamide]
14 | 367 | COc1ccc(C(=O)N2CC3CCC(C2)O3)cc1C(=O)N[C@H]1[C@@H](C(=O)Nc2ccc(F)c(C(F)(F)F)c2)[C@H]2CC[C@@H]1/C2=C\C1CC1 [Example 259, (1R,2S,3R,4R,7Z)-7-(cyclopropylmethylidene)-N-[4-fluoro-3-(trifluoromethyl)phenyl]-3-(2-methoxy-5-{8-oxa-3-azabicyclo[3.2.1]octane-3-carbonyl}benzamido) bicyclo[2.2.1] heptane-2-carboxamide]
15 | 244 | COc1ccc(C(C)(C)CCO)cc1C(=O)N[C@H]1[C@@H](C(=O)Nc2ccc(F)c(C(F)(F)F)c2)[C@H]2CC[C@@H]1/C2=C\C1CC1 [Example 269, (1R,2S,3R,4R,7Z)-7-(cyclopropyl-methylidene)-N-[4-fluoro-3-(trifluoromethyl)phenyl]-3-[5-(4-hydroxy-2-methylbutan-2-yl)-2-methoxybenzamido] bicyclo[2.2.1] heptane-2-carboxamide]
16 | 2.22 | COc1ccc(COCC2CC(O)C2)cc1C(=O)N[C@H]1[C@@H](C(=O)Nc2ccc(F)c(C(F)(F)F)c2)[C@H]2CC[C@@H]1/C2=C\C1CC1 (stereo partly drawn) [Example 291, (1R,2S,3R,4R,7Z)-7-(cyclopropyl-methylidene)-N-[4-fluoro-3-(trifluoromethyl)phenyl]-3-(5-{[(3-hydroxycyclobutyl)methoxy]methyl}-2-methoxybenzamido) bicyclo[2.2.1] heptane-2-carboxamide]
17 | 84 | COc1ccc([C@H]2C[C@H](O)C2)cc1C(=O)NC1C2CCC(/C2=C/C(F)(F)F)[C@@H]1C(=O)Nc1ccc(F)c(C(F)(F)F)c1 (stereo partly drawn) [Example 145, (2S,3R,7Z)-N-[4-fluoro-3-(trifluoromethyl)phe-nyl]-3-{2-methoxy-5-[(1r,3r)-3-hydroxycyclobutyl]benzamido}-7-(2,2,2-trifluoroethylidene)bi-cyclo[2.2.1]heptane-2-carboxamide]
